US20100324285A1, “ANTIINFLAMMATORY AGENT COMPRISING 2-AMINOPHENOL OR DERIVATIVE THEREOF AS ACTIVE INGREDIENT” (priority 2006, published 2010)

Columns and labels:
COX-1 = molecular target: T1, COX-1 (Ovis aries, UniProt P05979); test: COX Inhibitor Screening Assay Kit, COX-1; type: biochemical
T1 construct: purchased Cayman Chemical Company
T1 sequence (P05979 25-600): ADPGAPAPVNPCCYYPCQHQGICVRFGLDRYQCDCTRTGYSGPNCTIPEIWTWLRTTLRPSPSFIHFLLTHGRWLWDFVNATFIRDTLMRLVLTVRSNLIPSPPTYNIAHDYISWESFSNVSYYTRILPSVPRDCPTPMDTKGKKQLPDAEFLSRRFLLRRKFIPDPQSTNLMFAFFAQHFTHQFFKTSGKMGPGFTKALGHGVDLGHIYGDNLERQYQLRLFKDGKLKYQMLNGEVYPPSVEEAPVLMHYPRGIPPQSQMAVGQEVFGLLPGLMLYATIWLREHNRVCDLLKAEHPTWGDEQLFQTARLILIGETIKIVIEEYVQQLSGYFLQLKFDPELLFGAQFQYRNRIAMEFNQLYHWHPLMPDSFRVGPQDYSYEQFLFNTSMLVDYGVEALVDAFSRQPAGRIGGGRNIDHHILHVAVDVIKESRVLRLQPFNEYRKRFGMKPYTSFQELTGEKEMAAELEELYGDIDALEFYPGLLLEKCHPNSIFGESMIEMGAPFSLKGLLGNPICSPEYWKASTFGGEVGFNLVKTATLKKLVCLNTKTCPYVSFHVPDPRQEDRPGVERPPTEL
Description: (§1) Fifty percent inhibitory concentration (IC50) means the concentration of test sample necessary for inhibiting PGE2 synthesis by 50% compared to non-inhibitory control sample. It can be also determined by measuring the amount of PGE2 produced by adding test samples to cells having cyclooxygenase activity. COX-1/COX-2 ratio means the ratio of […], and the higher the ratio is, the more specific to COX-2 the agent is.
(§2) To verify the results of Experiment 2, it was investigated that whether the activity of COXs, essential enzymes for PGE2 synthesis system, can be inhibited. […] An experimental system without the test samples was set as control. The residual activity of COX-1 or COX-2 was determined as relative activity versus control.

COX-2 = molecular target: T2, COX-2 (Homo sapiens, UniProt P35354); test: COX Inhibitor Screening Assay Kit, COX-2; type: biochemical
T2 sequence (P35354 18-604): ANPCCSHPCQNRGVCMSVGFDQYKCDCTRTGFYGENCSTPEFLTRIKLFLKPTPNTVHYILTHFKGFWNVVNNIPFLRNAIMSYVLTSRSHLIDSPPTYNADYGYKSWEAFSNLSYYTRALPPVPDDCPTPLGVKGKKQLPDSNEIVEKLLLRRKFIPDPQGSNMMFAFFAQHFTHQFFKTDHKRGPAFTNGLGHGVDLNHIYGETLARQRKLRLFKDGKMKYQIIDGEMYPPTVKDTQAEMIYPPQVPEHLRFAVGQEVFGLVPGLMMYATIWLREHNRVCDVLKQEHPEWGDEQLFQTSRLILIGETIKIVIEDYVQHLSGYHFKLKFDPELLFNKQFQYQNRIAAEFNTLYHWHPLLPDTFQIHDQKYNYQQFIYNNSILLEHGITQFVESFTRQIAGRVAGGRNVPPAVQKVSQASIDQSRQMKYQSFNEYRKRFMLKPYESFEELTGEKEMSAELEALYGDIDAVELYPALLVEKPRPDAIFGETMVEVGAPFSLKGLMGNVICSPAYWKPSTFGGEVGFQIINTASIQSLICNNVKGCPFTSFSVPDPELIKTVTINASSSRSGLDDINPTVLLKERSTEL
Description: as §1, §2

[1] = test system: Mouse melanoma cell line B16; test: Living cell rate of B16 cells; details: 5 days, versus control
Procedure: As control, a system with no test sample was provided. […] The amount of protein was measured by conventional Bradfordmethod and the amount of melanin per 1 mg of protein was calculated. The amount of melanin (%) was calculated according to Formula 4, and the living cell rate (%) was calculated according to Formula 5.

[2] = test system: NHDF, normal fibroblast from human fetus; test: Collagen production by NHDF, Sircol Collagen Assay; type: cell-based; details: 6 days; for Collagen production (μg/well), AA-2G addition: 50 μM AA-2G; for Collagen production (μg/well), AA-2G free: no AA-2G
Procedure: NDHF cells (commercialized by Kurabo Industries Ltd. Osaka, Japan, catalog No. “KF-4001”) were suspended in D-MEM supplemented with 10 (v/v) % FCS to give a concentration of 5×10^5 cells/ml, and the suspension was sown in 96-well microplate by 50 μl per well. […] After cultured at 37° C. for a day, the supernatant was removed and any one of the samples and D-MEM medium supplemented with 10 (v/v) % FCS containing 100 μM AA-2G (a final concentration of 50 μM) or D-MEM medium supplemented with 10 (v/v) % FCS not containing AA-2G were added by 100 μl per well, and cultured at 37° C. for 3 days in 5 (v/v) % CO2 atmosphere. […] After the culture supernatant was removed, 1 M acetate solution containing 1 mg/ml of pepsin (commercialized by SIGMA, Inc.) was added by 50 μl per well and the plate was shaken at room temperature for 4 hours with a plate mixer for pepsin digestion. The digest was collected in a 1.5 ml-tube by pipetting, admixed with 200 μl per tube of Dye Reagent of Sircol Collagen Assay Kit (commercialized by Biocolor Ltd.), and allowed to react at room temperature for 30 minutes by inversely mixing. The supernatant of the reaction mixture was completely removed bycentrifugation (4° C., 15,000 rpm, 10 minutes), […] dissolved in 50 μl of 1 N NaOH, the resulting supernatant was measured for its absorbance at 560 nm to 650 nm. […] According to the standard curve, the amount of collagen in the pepsin digest of the cells was calculated.

[3] = read-out: residual activity of COX-1
[4] = read-out: residual activity of COX-2

`Nc1cc2nc3ccccc3oc-2cc1=O` [2-Aminophenoxazine-3-one, 2-aminophenoxazine-3-one] gave an IC50 (COX-1; PGE2 from arachidonic acid, read-out: IC50 COX-1) of 6.44 µM, a remaining activity at 1.9 µM (COX-1; [3]) of 89% and a remaining activity at 3.8 µM (COX-1; [3]) of 59%. The remaining activity at 7.6 µM (COX-1; [3]) was 44%, the IC50 (COX-2; PGE2 from arachidonic acid, read-out: IC50 COX-2) was 4.83 µM and the COX-1/COX-2 ratio (COX-2; ratio of IC50 values of Table 2) was “about 1.3”. The remaining activity at 1.9 µM (COX-2; [4]) was 95%, the remaining activity at 3.8 µM (COX-2; [4]) was 37% and the remaining activity at 7.6 µM (COX-2; [4]) was 29%. The “Living cell rate (%)” value ([1]; 0.5 μM) was 107%, the “Living cell rate (%)” value ([1]; 1 μM) was 95% and the “Living cell rate (%)” value ([1]; 2 μM) was 77%. The “Collagen production (μg/well), AA-2G addition” value ([2]; QA 0.125 μM) was 1.32 ± 0.45 μg/well, the “Collagen production (μg/well), AA-2G free” value ([2]; QA 0.125 μM) was 0.66 ± 0.05 μg/well and the “Collagen production (μg/well), AA-2G addition” value ([2]; QA 0.25 μM) was 1.64 ± 0.21 μg/well. For the same molecule, the “Collagen production (μg/well), AA-2G free” value ([2]; QA 0.25 μM) was 0.64 ± 0.06 μg/well, the “Collagen production (μg/well), AA-2G addition” value ([2]; QA 0.5 μM) was 1.57 ± 0.18 μg/well and the “Collagen production (μg/well), AA-2G free” value ([2]; QA 0.5 μM) was 0.63 ± 0.07 μg/well. For the same molecule, the “Collagen production (μg/well), AA-2G addition” value ([2]; QA 1.0 μM) was 1.03 ± 0.22 μg/well, the “Collagen production (μg/well), AA-2G free” value ([2]; QA 1.0 μM) was 0.71 ± 0.10 μg/well and the “Collagen production (μg/well), AA-2G addition” value ([2]; QA 2.0 μM) was 0.58 ± 0.06 μg/well. For the same molecule, the “Collagen production (μg/well), AA-2G free” value ([2]; QA 2.0 μM) was 0.70 ± 0.16 μg/well.
